Laboratory results from PubChem BioAssay AID330 (DTP/NCI, 2004).
“And” between values parts separate entries of the source, which are not always exact repeats. Identical values can stand only once. Toxic doses and inconclusive results are not listed.

System: P388 leukemia ip, CD2F1 mice, survival T/C
Test: NCI In Vivo Anticancer Drug Screen. Data for tumor model P388 Leukemia (intraperitoneal) in CD2F1 (CDF1) mice
Conditions: endpoint: median survival time, higher = longer survival
Outline: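 Mice carrying the transplanted tumor received test compound or vehicle. Survival was recorded in each group, and the value is the treated-group measurement divided by that of the vehicle-treated control group.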

[1] = dose: 50.0 mg/kg/injection, schedule: Q01DX009 (ip), vehicle: saline with Tween-80
[2] = dose: 100.0 mg/kg/injection, schedule: Q01DX009 (ip), vehicle: saline with Tween-80
[3] = dose: 50.0 mg/kg/injection, schedule: Q01DX005 (ip), vehicle: saline with Tween-80
[4] = dose: 100.0 mg/kg/injection, schedule: Q01DX005 (ip), vehicle: saline with Tween-80
[5] = dose: 200.0 mg/kg/injection, schedule: Q01DX009 (ip), vehicle: saline with Tween-80

Cc1ncc(CNC(=O)N(CCCl)N=O)c(N)n1
T/C (dose: 10.0 mg/kg/injection, schedule: Q01DX001 (ip), vehicle: saline): 191 % of control
T/C (dose: 20.0 mg/kg/injection, schedule: Q01DX001 (ip), vehicle: saline): 260 % of control and 336 % of control
T/C (dose: 30.0 mg/kg/injection, schedule: Q01DX001 (ip), vehicle: saline): 517 % of control
T/C (dose: 40.0 mg/kg/injection, schedule: Q01DX001 (ip), vehicle: saline): 120 % of control and 260 % of control

CCN(CC)Cc1c(C)[nH]c2ccccc2c1=O
T/C [1]: 109 % of control
T/C [2]: 118 % of control

O=c1/c(=C/C=C/c2ccccc2)sc2nc3ccccc3n12
T/C [3]: 107 % of control
T/C [4]: 106 % of control
T/C (dose: 200.0 mg/kg/injection, schedule: Q01DX005 (ip), vehicle: saline with Tween-80): 92 % of control

CNC(=O)c1ccccc1Sc1ccccc1C(=O)NC
T/C (dose: 100.0 mg/kg/injection, schedule: Q01DX001 (ip), vehicle: other): 100 % of control
T/C (dose: 200.0 mg/kg/injection, schedule: Q01DX001 (ip), vehicle: other): 101 % of control
T/C (dose: 400.0 mg/kg/injection, schedule: Q01DX001 (ip), vehicle: other): 100 % of control

COc1cc(OC)c2cc(C(=O)c3ccc(C#N)cc3)c(=O)oc2c1
T/C (dose: 60.0 mg/kg/injection, schedule: Q01DX005 (ip), vehicle: saline with Tween-80): 94 % of control
T/C (dose: 120.0 mg/kg/injection, schedule: Q01DX005 (ip), vehicle: saline with Tween-80): 104 % of control
T/C (dose: 240.0 mg/kg/injection, schedule: Q01DX005 (ip), vehicle: saline with Tween-80): 105 % of control

CCC1CN2CCc3cc(OC)c(OC)cc3C2C/C1=C/C(=O)O (stereo unspecified)
T/C (dose: 50.0 mg/kg/injection, schedule: Q01DX009 (ip), vehicle: suspension in saline): 95 % of control
T/C (dose: 100.0 mg/kg/injection, schedule: Q01DX009 (ip), vehicle: suspension in saline): 92 % of control

N#CC1=C(N)OC(C2CC2)=C(C#N)C1c1ccco1 (stereo unspecified)
T/C (dose: 60.0 mg/kg/injection, schedule: Q01DX005 (ip), vehicle: Klucel (hydroxypropylcellulose) (HPC)): 88 % of control
T/C (dose: 120.0 mg/kg/injection, schedule: Q01DX005 (ip), vehicle: Klucel (hydroxypropylcellulose) (HPC)): 88 % of control

OC(CCl)Cn1nnc2c3ccccc3ccc21 (stereo unspecified)
T/C (dose: 25.0 mg/kg/injection, schedule: Q01DX005 (ip), vehicle: saline with Tween-80): 101 % of control
T/C [3]: 101 % of control
T/C [4]: 101 % of control
T/C (dose: 100.0 mg/kg/injection, schedule: Q04DX003 (ip), vehicle: saline with Tween-80): 99 % of control
T/C (dose: 200.0 mg/kg/injection, schedule: Q04DX003 (ip), vehicle: saline with Tween-80): 94 % of control

CC1=CCC[C@@H]2C1(C)CCC(C)[C@@]2(C)CC1=CC(=O)C=CC1=O (stereo partly specified)
T/C (dose: 0.62 mg/kg/injection, schedule: Q01DX005 (ip), vehicle: saline with Tween-80): 99 % of control
T/C (dose: 1.25 mg/kg/injection, schedule: Q01DX005 (ip), vehicle: saline with Tween-80): 103 % of control
T/C (dose: 2.5 mg/kg/injection, schedule: Q01DX005 (ip), vehicle: saline with Tween-80): 99 % of control
T/C (dose: 5.0 mg/kg/injection, schedule: Q01DX005 (ip), vehicle: saline with Tween-80): 98 % of control
T/C (dose: 10.0 mg/kg/injection, schedule: Q01DX005 (ip), vehicle: saline with Tween-80): 103 % of control

CC(C)(C)N=C(CCN1CCCCC1)Nc1ccc(Cl)cc1
T/C [1]: 113 % of control
T/C [2]: 112 % of control
T/C [5]: 111 % of control

COc1ccc(C2(O)c3ccccc3C(=O)c3ccccc32)cc1
T/C (dose: 50.0 mg/kg/injection, schedule: Q01DX005 (ip), vehicle: Klucel (hydroxypropylcellulose) (HPC)): 95 % of control
T/C (dose: 100.0 mg/kg/injection, schedule: Q01DX005 (ip), vehicle: Klucel (hydroxypropylcellulose) (HPC)): 96 % of control
T/C (dose: 200.0 mg/kg/injection, schedule: Q01DX005 (ip), vehicle: Klucel (hydroxypropylcellulose) (HPC)): 107 % of control

NC(CCSCNc1ncnc2c1ncn2C1OC(CO)C(O)C1O)C(=O)O (stereo unspecified)
T/C (dose: 100.0 mg/kg/injection, schedule: Q04DX002 (ip), vehicle: saline with Tween-80): 97 % of control
T/C (dose: 200.0 mg/kg/injection, schedule: Q04DX002 (ip), vehicle: saline with Tween-80): 93 % of control
T/C (dose: 400.0 mg/kg/injection, schedule: Q04DX002 (ip), vehicle: saline with Tween-80): 93 % of control

O[O][Sn][c]1ccccc1
T/C [1]: 100 % of control
T/C [2]: 100 % of control
T/C [5]: 86 % of control
